# Experimental data taken from patent US20110136162A1, “Compositions and Methods for Functionalized Patterning of Tissue Engineering Substrates Including Bioprinting Cell-Laden Constructs for Multicompartment Tissue Chambers” (Drexel University, priority 2009, published 2011).
# Test system: Human hepatocytes (HepG2) and human melanoma cells (M10)
# Experiment: Micronuclei in binucleated cells after γ-radiation, cells treated with amifostine
# Type: cell-based
# Conditions: binucleated cells after 60 hours
# Description: Human hepatocytes (HepG2) and human melanoma cells (M10) were cultured in α-Minimum Essential Medium (Gibco) at 37° C. in 5% CO2. Cells were mixed with BME (i.e., Basement Membrane Matrix Phenol Red-free (BD Biosciences Matrigel)) chilled to 4° C. and printed onto a glass microfluidic chip having a PDMS substrate (see FIGS. 13 and 14) using a temperature-controlled BME printing apparatus 0-5° C. (see, for example, FIGS. 9 and 10).
# After the 4 hour treatment with amifostine, the cells were exposed to 2 Grays of γ-radiation from a cesium source. […] Then, the cells were incubated and allowed to divide for 60 hours and examined for evidence of radiation damage.
# Binucleated cells were examined for the presence of micronuclei as evidence of radiation damage.
compound,measurement,setting,value
NCCCNCCSP(=O)(O)O [amifostine],radiation-treated cells found to have micronuclei,"microfluidic chip, 1 mM amifostine perfusion 4 hours before and 90 minutes after 2 Grays γ-radiation",about 3%
same,radiation-treated cells found to have micronuclei,"tissue culture plate, 1 mM amifostine 4 hours before and 90 minutes after 2 Grays γ-radiation",about 4%
